Assay results as given in ChEMBL document CHEMBL4627262, “VEGFR-2 inhibiting effect and molecular modeling of newly synthesized coumarin derivatives as anti-breast cancer agents” (Bioorg Med Chem, 2020).
Active and inactive are the calls of the source. The rule behind the calls is not given here.

Assays:
[1] = test system: PC-3; test: Cytotoxicity against human PC3 cells assessed as inhibition of cell proliferation after 3 days by MTT assay; type: functional, cell-based
[2] = test system: MCF7; test: Cytotoxicity against human MCF7 cells assessed as inhibition of cell proliferation after 3 days by MTT assay; type: functional, cell-based; conditions: MCF7, 72 h
[3] = test system: MCF7; test: Induction of apoptosis in human MCF7 cells assessed as early apoptotic cells after 48 hrs by Annexin V-FITC/propidium iodide staining based flow cytometric analysis (reference value: 1.56 %); type: functional
[4] = test system: MCF7; test: Induction of apoptosis in human MCF7 cells assessed as late apoptotic cells after 48 hrs by Annexin V-FITC/propidium iodide staining based flow cytometric analysis (reference value: 0.3 %); type: functional
[5] = test system: MCF7; test: Induction of apoptosis in human MCF7 cells assessed as necrotic cells at after 48 hrs by Annexin V-FITC/propidium iodide staining based flow cytometric analysis (reference value: 0.41 %); type: functional
[6] = test system: MCF7; test: Induction of apoptosis in human MCF7 cells assessed as up regulation of caspase 9 expression by measuring caspase 9 level by ELISA (reference value: 1.223 ng/ml); type: functional
[7] = target: Vascular endothelial growth factor receptor 2 (Homo sapiens, UniProt P35968); test: Inhibition of VEGFR2 in human MCF7 cells by horseradish peroxidase-coupled TMB substrate based ELISA; type: cell-based
Vascular endothelial growth factor receptor 2, sequence (P35968 whole entry): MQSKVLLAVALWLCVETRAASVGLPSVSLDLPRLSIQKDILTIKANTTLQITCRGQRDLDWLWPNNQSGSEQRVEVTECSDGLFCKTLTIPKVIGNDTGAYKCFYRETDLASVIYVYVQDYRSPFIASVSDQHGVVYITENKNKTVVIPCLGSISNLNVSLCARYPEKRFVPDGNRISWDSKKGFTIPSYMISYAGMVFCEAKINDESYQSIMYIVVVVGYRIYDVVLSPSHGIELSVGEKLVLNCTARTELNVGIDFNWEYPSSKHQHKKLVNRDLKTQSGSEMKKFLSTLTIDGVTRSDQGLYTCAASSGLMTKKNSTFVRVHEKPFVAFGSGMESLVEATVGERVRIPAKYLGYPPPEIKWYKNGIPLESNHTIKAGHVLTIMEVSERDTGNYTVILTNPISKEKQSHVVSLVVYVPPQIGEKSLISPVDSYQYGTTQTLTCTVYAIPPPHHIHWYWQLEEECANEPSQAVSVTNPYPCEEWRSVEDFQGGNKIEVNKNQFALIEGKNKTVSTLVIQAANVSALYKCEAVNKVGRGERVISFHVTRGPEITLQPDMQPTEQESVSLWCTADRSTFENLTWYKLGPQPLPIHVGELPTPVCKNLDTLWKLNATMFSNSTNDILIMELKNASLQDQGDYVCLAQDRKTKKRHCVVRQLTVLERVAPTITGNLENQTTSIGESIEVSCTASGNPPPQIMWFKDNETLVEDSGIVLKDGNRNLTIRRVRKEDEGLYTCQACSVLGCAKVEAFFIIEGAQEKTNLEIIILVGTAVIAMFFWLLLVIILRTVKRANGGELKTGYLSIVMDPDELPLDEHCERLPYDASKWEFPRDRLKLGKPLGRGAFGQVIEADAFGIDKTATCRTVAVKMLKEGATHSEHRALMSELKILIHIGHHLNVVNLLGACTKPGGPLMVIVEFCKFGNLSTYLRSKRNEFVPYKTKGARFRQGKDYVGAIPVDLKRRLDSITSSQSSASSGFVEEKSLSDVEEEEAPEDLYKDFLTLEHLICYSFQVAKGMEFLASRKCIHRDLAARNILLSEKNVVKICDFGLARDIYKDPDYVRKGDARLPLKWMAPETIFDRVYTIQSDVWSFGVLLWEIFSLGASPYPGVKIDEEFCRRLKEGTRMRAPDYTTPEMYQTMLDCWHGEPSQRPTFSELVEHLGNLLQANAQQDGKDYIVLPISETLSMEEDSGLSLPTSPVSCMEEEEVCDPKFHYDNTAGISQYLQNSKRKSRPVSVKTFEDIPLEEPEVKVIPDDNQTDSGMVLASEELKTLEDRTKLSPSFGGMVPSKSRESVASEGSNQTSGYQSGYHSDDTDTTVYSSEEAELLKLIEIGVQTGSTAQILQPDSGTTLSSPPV

[8] = test system: MCF7; test: Cell cycle arrest in human MCF7 cells assessed as accumulation at G2/M phase after 48 hrs by propidium iodide/RNase A staining based flow cytometry analysis; type: functional
[9] = test system: MCF7; test: Cell cycle arrest in human MCF7 cells assessed as induction of preG1 apoptosis after 48 hrs by propidium iodide/RNase A staining based flow cytometry analysis; type: functional

Compound | inhibition [1] | IC50 [2] [µM] | further results
COc1cc(OC)c(CNS(=O)(=O)c2ccc3oc(=O)c(Br)cc3c2)c(OC)c1 | inactive | 5.76 | 
O=c1oc2ccc(S(=O)(=O)Nc3nc4ccccc4[nH]3)cc2cc1Br | inactive | 3.65 | 
Cc1cc(=O)oc2ccc(N3C(=O)c4ccccc4C3=O)cc12 | inactive | 4.17 | 
CN[C@@H]1C[C@H]2O[C@@](C)([C@@H]1OC)n1c3ccccc3c3c4c(c5c6ccccc6n2c5c31)C(=O)NC4 [STAUROSPORINE] |  |  | Activity [3]: 8.16%; Activity [4]: 11.27%; Activity [5]: 2.33%; Activity [6]: 8.41 ng/mL
Cc1cc(=O)oc2cc(OCC(=O)NNC(=O)c3ccccc3)ccc12 | inactive | 7.89 | 
Cc1ccc(/C=N/NC(=O)COc2ccc3c(C)cc(=O)oc3c2)o1 | inactive | 3.19 | 
Cc1cc(=O)oc2cc(OCC(=O)Nn3c(=O)[nH]c4ccccc4c3=O)ccc12 | inactive | 1.65 | IC50 [7]: 0.66 µM
CN1CCN(S(=O)(=O)c2ccc3oc(=O)c(Br)cc3c2)CC1 | inactive | 31.4 | 
Cc1cc(=O)oc2cc(OCC(=O)NN3C(=O)C=CC3=O)ccc12 | inactive | 2.11 | 
Cc1cc(=O)oc2cc(OCC(=O)N/N=C/c3ccc(N(C)C)cc3)ccc12 | inactive | 5.54 | 
Cc1cc(=O)oc2ccc(NC(=O)c3ccccc3)cc12 | inactive | 4.6 | 
Cc1cc(=O)oc2cc(OCC(=O)N/N=C/c3ccc(F)cc3)ccc12 | inactive | 9.78 | 
Cc1cc(=O)oc2cc(OCC(=O)NNC(=O)CN3CCN(C)CC3)ccc12 | inactive | 6.68 | 
Cc1cc(=O)oc2cc(OCC(=O)NN3C(=O)c4ccccc4C3=O)ccc12 | inactive | 14.7 | 
Cc1cc(=O)oc2cc(OCC(=O)N/N=C/c3ccc([N+](=O)[O-])cc3)ccc12 | inactive | 5.59 | 
O=c1oc2ccc(S(=O)(=O)N3CCCCC3)cc2cc1Br | inactive | 2.07 | 
Cc1cc(=O)oc2cc(OCC(=O)NNC(=O)CN3CCOCC3)ccc12 | inactive | 37.3 | 
O=c1oc2ccc(S(=O)(=O)NCc3ccc4c(c3)OCO4)cc2cc1Br | inactive | 7.79 | 
Cc1cc(=O)oc2cc(OCC(=O)NNCc3ccccc3)ccc12 | inactive | 1.24 | Activity [3]: 6.72%; Activity [4]: 17.78%; Activity [5]: 1.92%; Activity [8]: Active; Activity [6]: 8.015 ng/mL; Activity [9]: Active; IC50 [7]: 0.36 µM
O=c1oc2ccc(S(=O)(=O)N3CCOCC3)cc2cc1Br | inactive | 13.2 | 
Cc1cc(=O)oc2cc(OCC(=O)NN(C(=O)c3ccncc3)C(=O)c3ccncc3)ccc12 | inactive | 8.68 | 
